Results from publication PMC5218480 (PLoS ONE, 2017).

Tested on: MV-4-11 cells
Assay: Gene expression microarray analysis (Affymetrix PrimeView) and GSEA
Type: cell-based, human
Design: RFU PODN (11730768_x_at) / Fold change /veh PODN (11730768_x_at) / RFU LINC00158 (11744669_a_at) / Fold change /veh LINC00158 (11744669_a_at) / RFU DUSP10 (11751237_a_at) / Fold change /veh DUSP10 (11751237_a_at) / RFU ID3 (11757404_x_at) / Fold change /veh ID3 (11757404_x_at) / RFU PLEKHG5 (11737974_s_at) / Fold change /veh PLEKHG5 (11737974_s_at) / RFU LRRC4B (11730491_at) / Fold change /veh LRRC4B (11730491_at) / RFU GIMAP4 (11747438_a_at) / Fold change /veh GIMAP4 (11747438_a_at) / RFU KRT8 (11758183_x_at) / Fold change /veh KRT8 (11758183_x_at) / RFU CNN1 (11734310_a_at) / Fold change /veh CNN1 (11734310_a_at) / RFU VPS37D (11726825_at) / Fold change /veh VPS37D (11726825_at) / RFU C10orf10 (11716522_x_at) / Fold change /veh C10orf10 (11716522_x_at) / RFU KIR2DL2 /// KIR2DL4 /// KIR2DL5A /// KIR2DL5B /// KIR2DS1 /// KIR2DS2 /// KIR2DS3 /// KIR2DS4 /// KIR3DL3 /// KIR3DL3 /// KIR3DS1 (11738374_at) / Fold change /veh KIR2DL2 /// KIR2DL4 /// KIR2DL5A /// KIR2DL5B /// KIR2DS1 /// KIR2DS2 /// KIR2DS3 /// KIR2DS4 /// KIR3DL3 /// KIR3DL3 /// KIR3DS1 (11738374_at) / RFU C1QL1 (11718748_at) / Fold change /veh C1QL1 (11718748_at) / RFU TMPRSS4 (11747572_a_at) / Fold change /veh TMPRSS4 (11747572_a_at) / RFU HAMP (11756126_x_at) / Fold change /veh HAMP (11756126_x_at) / RFU RNFT2 (11725882_a_at) / Fold change /veh RNFT2 (11725882_a_at) / RFU NR4A2 (11747474_a_at) / Fold change /veh NR4A2 (11747474_a_at) / RFU ABCC12 (11746883_a_at) / Fold change /veh ABCC12 (11746883_a_at) / RFU TMEM136 (11760407_x_at) / Fold change /veh TMEM136 (11760407_x_at) / RFU CLDN22 /// WWC2 (11732394_at) / Fold change /veh CLDN22 /// WWC2 (11732394_at) / RFU HLA-DPB1 (11760878_x_at) / Fold change /veh HLA-DPB1 (11760878_x_at) / RFU SPINT1 (11716480_a_at) / Fold change /veh SPINT1 (11716480_a_at) / RFU GAP43 (11754022_s_at) / Fold change /veh GAP43 (11754022_s_at) / RFU A4GNT (11735810_at) / Fold change /veh A4GNT (11735810_at) / RFU PRB3 (11715151_x_at) / Fold change /veh PRB3 (11715151_x_at) / RFU TUBB4B (11761932_at) / Fold change /veh TUBB4B (11761932_at) / RFU CAPN14 (11732068_a_at) / Fold change /veh CAPN14 (11732068_a_at) / RFU TMCC2 (11721928_a_at) / Fold change /veh TMCC2 (11721928_a_at) / RFU IRGQ (11745062_a_at) / Fold change /veh IRGQ (11745062_a_at) / RFU FAM174B (11720279_a_at) / Fold change /veh FAM174B (11720279_a_at) / RFU TMPRSS4 (11748680_a_at) / Fold change /veh TMPRSS4 (11748680_a_at) / RFU FAM212B (11763350_a_at) / Fold change /veh FAM212B (11763350_a_at) / RFU PLEKHG5 (11743358_a_at) / Fold change /veh PLEKHG5 (11743358_a_at) / RFU ZSCAN30 (11745921_a_at) / Fold change /veh ZSCAN30 (11745921_a_at) / RFU CMKLR1 (11741424_a_at) / Fold change /veh CMKLR1 (11741424_a_at) / RFU LOC101060620 /// MAPK8IP1 (11723275_at) / Fold change /veh LOC101060620 /// MAPK8IP1 (11723275_at) / RFU SPTSSB (11747773_x_at) / Fold change /veh SPTSSB (11747773_x_at) / RFU PRSS12 (11739890_at) / Fold change /veh PRSS12 (11739890_at) / RFU BIN1 (11741810_x_at) / Fold change /veh BIN1 (11741810_x_at) / RFU WNT11 (11732464_a_at) / Fold change /veh WNT11 (11732464_a_at) / RFU C10orf10 (11716521_a_at) / Fold change /veh C10orf10 (11716521_a_at) / RFU C5orf56 (11738089_at) / Fold change /veh C5orf56 (11738089_at) / RFU CYB561 (11721691_x_at) / Fold change /veh CYB561 (11721691_x_at) / RFU ANKRD19P (11752326_a_at) / Fold change /veh ANKRD19P (11752326_a_at) / RFU OR2T12 /// OR2T33 /// OR2T8 (11738714_s_at) / Fold change /veh OR2T12 /// OR2T33 /// OR2T8 (11738714_s_at) / RFU VCAN (11748164_a_at) / Fold change /veh VCAN (11748164_a_at) / RFU JSRP1 (11732532_at) / Fold change /veh JSRP1 (11732532_at) / RFU KRTAP10-11 (11738290_x_at) / Fold change /veh KRTAP10-11 (11738290_x_at) / RFU MYO3A (11730013_a_at) / Fold change /veh MYO3A (11730013_a_at) / RFU EBF3 (11725865_a_at) / Fold change /veh EBF3 (11725865_a_at) / RFU CAMK2N1 (11719241_x_at) / Fold change /veh CAMK2N1 (11719241_x_at) / RFU C5orf56 (11738088_a_at) / Fold change /veh C5orf56 (11738088_a_at) / RFU OLFML3 (11715873_a_at) / Fold change /veh OLFML3 (11715873_a_at) / RFU LOC100653217 /// NTM (11731650_a_at) / Fold change /veh LOC100653217 /// NTM (11731650_a_at) / RFU MAPK11 (11762145_a_at) / Fold change /veh MAPK11 (11762145_a_at) / RFU FIZ1 (11724087_x_at) / Fold change /veh FIZ1 (11724087_x_at) / RFU OASL (11726364_x_at) / Fold change /veh OASL (11726364_x_at) / RFU SOX15 (11748057_x_at) / Fold change /veh SOX15 (11748057_x_at) / RFU CD79A (11719716_a_at) / Fold change /veh CD79A (11719716_a_at) / RFU HIST1H1D (11736915_at) / Fold change /veh HIST1H1D (11736915_at) / RFU CASKIN2 (11723855_a_at) / Fold change /veh CASKIN2 (11723855_a_at) / RFU LOC730098 (11760151_x_at) / Fold change /veh LOC730098 (11760151_x_at) / RFU OR4N2 (11742367_at) / Fold change /veh OR4N2 (11742367_at) / RFU PRRT2 (11749266_a_at) / Fold change /veh PRRT2 (11749266_a_at) / RFU SNX32 (11753110_a_at) / Fold change /veh SNX32 (11753110_a_at) / RFU CDHR5 (11726645_a_at) / Fold change /veh CDHR5 (11726645_a_at) / RFU RCAN1 (11760418_a_at) / Fold change /veh RCAN1 (11760418_a_at) / RFU FAM167A (11723789_a_at) / Fold change /veh FAM167A (11723789_a_at) / RFU FAM26E (11764081_at) / Fold change /veh FAM26E (11764081_at) / RFU ISYNA1 (11749810_s_at) / Fold change /veh ISYNA1 (11749810_s_at) / RFU ACY1 (11761880_at) / Fold change /veh ACY1 (11761880_at) / RFU 11764098_at / Fold change /veh 11764098_at / RFU SAMD14 (11745864_x_at) / Fold change /veh SAMD14 (11745864_x_at) / RFU NPB (11741838_a_at) / Fold change /veh NPB (11741838_a_at) / RFU TMPRSS6 (11731388_a_at) / Fold change /veh TMPRSS6 (11731388_a_at) / RFU KRTAP10-2 (11738614_at) / Fold change /veh KRTAP10-2 (11738614_at) / RFU ARHGAP8 /// PRR5-ARHGAP8 (11727945_x_at) / Fold change /veh ARHGAP8 /// PRR5-ARHGAP8 (11727945_x_at) / RFU KRTAP5-7 /// NADSYN1 (11734609_at) / Fold change /veh KRTAP5-7 /// NADSYN1 (11734609_at) / RFU RASL12 (11751679_a_at) / Fold change /veh RASL12 (11751679_a_at) / RFU CDKN2B (11736163_a_at) / Fold change /veh CDKN2B (11736163_a_at) / RFU PRF1 (11729649_at) / Fold change /veh PRF1 (11729649_at) / RFU, ZNF638 /// ZNF638-IT1 / Fold change vs veh, ZNF638 /// ZNF638-IT1 / RFU, PANK3 / Fold change vs veh, PANK3 / RFU, SH3YL1 / Fold change vs veh, SH3YL1 / RFU, ZEB2 / Fold change vs veh, ZEB2 / RFU, NRIP1 / Fold change vs veh, NRIP1 / RFU, PTTG1IP / Fold change vs veh, PTTG1IP / RFU, CAPN2 / Fold change vs veh, CAPN2 / RFU, MED14 / Fold change vs veh, MED14 / RFU, SNORA58 / Fold change vs veh, SNORA58 / RFU, C1orf63 / Fold change vs veh, C1orf63 / RFU, LRRFIP1 / Fold change vs veh, LRRFIP1 / RFU, NDUFAF7 / Fold change vs veh, NDUFAF7 / RFU, SLC12A2 / Fold change vs veh, SLC12A2 / RFU, IBTK / Fold change vs veh, IBTK / RFU, ESF1 / Fold change vs veh, ESF1 / Fold change vs veh, TMEM50B / RFU, TAOK1 / Fold change vs veh, TAOK1 / RFU, ACBD3 / Fold change vs veh, ACBD3 / RFU, TMA16 / Fold change vs veh, TMA16 / RFU, RWDD3 / Fold change vs veh, RWDD3 / RFU, BCAT1 / Fold change vs veh, BCAT1 / RFU, EDEM3 / Fold change vs veh, EDEM3 / RFU, TMEM33 / Fold change vs veh, TMEM33 / RFU, WDR75 / Fold change vs veh, WDR75 / RFU, AHCTF1 / Fold change vs veh, AHCTF1 / RFU, TFRC / Fold change vs veh, TFRC / RFU, ZDHHC17 / Fold change vs veh, ZDHHC17 / RFU, NOM1 / Fold change vs veh, NOM1 / RFU, ARL8B / Fold change vs veh, ARL8B / RFU, ZBTB11 / Fold change vs veh, ZBTB11 / RFU, TAMM41 / Fold change vs veh, TAMM41 / RFU, KIAA1704 /// LOC100996395 / Fold change vs veh, KIAA1704 /// LOC100996395 / RFU, ING1 / Fold change vs veh, ING1 / RFU, TRMT61B / Fold change vs veh, TRMT61B / RFU, FUBP3 / Fold change vs veh, FUBP3 / RFU, TP53 / Fold change vs veh, TP53 / RFU, TNKS2 / Fold change vs veh, TNKS2 / RFU, ZFP14 / Fold change vs veh, ZFP14 / RFU, ACTR2 / Fold change vs veh, ACTR2 / RFU, PPP3R1 / Fold change vs veh, PPP3R1 / RFU, PIK3R1 / Fold change vs veh, PIK3R1 / RFU, HNRNPA1 / Fold change vs veh, HNRNPA1 / RFU, RNF170 / Fold change vs veh, RNF170 / RFU, ZNF28 / Fold change vs veh, ZNF28 / RFU, RNGTT / Fold change vs veh, RNGTT / RFU, OGT / Fold change vs veh, OGT / RFU, BRD1 / Fold change vs veh, BRD1 / RFU, MARS / Fold change vs veh, MARS / RFU, ZNF655 / Fold change vs veh, ZNF655 / RFU, FAHD1 / Fold change vs veh, FAHD1 / RFU, BDP1 / Fold change vs veh, BDP1 / RFU, LRRCC1 / Fold change vs veh, LRRCC1 / RFU, ARID1A / Fold change vs veh, ARID1A / RFU, ZNF146 / Fold change vs veh, ZNF146 / RFU, ZNF330 / Fold change vs veh, ZNF330 / RFU, GPN3 / Fold change vs veh, GPN3 / RFU, C9orf123 / Fold change vs veh, C9orf123 / RFU, N4BP2L2 / Fold change vs veh, N4BP2L2 / RFU, ARFIP1 / Fold change vs veh, ARFIP1 / RFU, FAM179B / Fold change vs veh, FAM179B / RFU, BCL10 / Fold change vs veh, BCL10 / RFU, UHRF1BP1L / Fold change vs veh, UHRF1BP1L / RFU, BET1 / Fold change vs veh, BET1 / RFU, CNOT2 / Fold change vs veh, CNOT2 / RFU, ZNF268 / Fold change vs veh, ZNF268 / Fold change vs veh, ZNF507 / RFU, DGCR2 / Fold change vs veh, DGCR2 / RFU, WDSUB1 / Fold change vs veh, WDSUB1 / Fold change vs veh, HSP90B1 /// MIR3652 / RFU, ADSS / Fold change vs veh, ADSS / RFU, GK / Fold change vs veh, GK / RFU, ZNF148 / Fold change vs veh, ZNF148 / RFU, TAF9 / Fold change vs veh, TAF9 / RFU, SLC1A5 / Fold change vs veh, SLC1A5 / RFU, SLMO2 / Fold change vs veh, SLMO2 / RFU, ABCC4 / Fold change vs veh, ABCC4 / RFU, LOC101060439 /// RAP1B / Fold change vs veh, LOC101060439 /// RAP1B / RFU, RFX7 / Fold change vs veh, RFX7 / RFU, GTPBP10 / Fold change vs veh, GTPBP10 / RFU, CNEP1R1 / Fold change vs veh, CNEP1R1 / RFU, BIVM-ERCC5 /// ERCC5 / Fold change vs veh, BIVM-ERCC5 /// ERCC5 / RFU, ILF3 / Fold change vs veh, ILF3 / RFU 11762660_at / Fold change /veh 11762660_at / RFU VCAN (11757783_s_at) / Fold change /veh VCAN (11757783_s_at) / RFU DDX43 (11728927_at) / Fold change /veh DDX43 (11728927_at) / RFU KRT8 (11758188_x_at) / Fold change /veh KRT8 (11758188_x_at) / RFU NKD1 (11759106_at) / Fold change /veh NKD1 (11759106_at) / RFU SRD5A1 (11742802_a_at) / Fold change /veh SRD5A1 (11742802_a_at) / RFU TPSAB1 /// TPSB2 (11721975_s_at) / Fold change /veh TPSAB1 /// TPSB2 (11721975_s_at) / RFU GSTM3 (11746129_a_at) / Fold change /veh GSTM3 (11746129_a_at) / RFU IL23R (11737362_x_at) / Fold change /veh IL23R (11737362_x_at) / RFU TMEM51 (11727254_a_at) / Fold change /veh TMEM51 (11727254_a_at) / RFU PIWIL2 (11732686_x_at) / Fold change /veh PIWIL2 (11732686_x_at) / RFU ORM1 (11744905_x_at) / Fold change /veh ORM1 (11744905_x_at) / RFU CCDC152 (11743942_at) / Fold change /veh CCDC152 (11743942_at) / RFU ECM1 (11717891_a_at) / Fold change /veh ECM1 (11717891_a_at) / RFU IL23R (11748794_a_at) / Fold change /veh IL23R (11748794_a_at) / RFU TNFAIP8L3 (11732012_x_at) / Fold change /veh TNFAIP8L3 (11732012_x_at) / RFU MBOAT4 (11741988_at) / Fold change /veh MBOAT4 (11741988_at) / RFU 11764193_at / Fold change /veh 11764193_at / RFU TMEM53 (11763286_at) / Fold change /veh TMEM53 (11763286_at) / RFU MAGEB2 (11727129_at) / Fold change /veh MAGEB2 (11727129_at) / RFU TMEM200A (11744735_a_at) / Fold change /veh TMEM200A (11744735_a_at) / RFU CCDC152 (11751479_a_at) / Fold change /veh CCDC152 (11751479_a_at) / RFU FAM211A (11726209_a_at) / Fold change /veh FAM211A (11726209_a_at) / RFU RGS16 (11746705_a_at) / Fold change /veh RGS16 (11746705_a_at) / RFU VCAN (11755009_s_at) / Fold change /veh VCAN (11755009_s_at) / RFU RHOB (11743442_s_at) / Fold change /veh RHOB (11743442_s_at) / RFU RGS16 (11720943_a_at) / Fold change /veh RGS16 (11720943_a_at) / RFU RGS16 (11720944_at) / Fold change /veh RGS16 (11720944_at) / RFU, VPS4B / Fold change vs veh, VPS4B / RFU, CREB1 / Fold change vs veh, CREB1 / RFU, DNAJC13 / Fold change vs veh, DNAJC13 / RFU, GNAQ / Fold change vs veh, GNAQ / RFU, CDK5R1 / Fold change vs veh, CDK5R1 / RFU, ZRANB3 / Fold change vs veh, ZRANB3 / RFU, CUL4A / Fold change vs veh, CUL4A / RFU, CCNY / Fold change vs veh, CCNY / RFU, UFL1 / Fold change vs veh, UFL1 / RFU, COG3 / Fold change vs veh, COG3 / RFU, DIAPH2 / Fold change vs veh, DIAPH2 / RFU, SKA2 / Fold change vs veh, SKA2 / RFU, AFF3 / Fold change vs veh, AFF3 / RFU, LMF1 / Fold change vs veh, LMF1 / RFU, IPO11 / Fold change vs veh, IPO11 / RFU, DFFB / Fold change vs veh, DFFB / RFU, FOXP1 / Fold change vs veh, FOXP1 / RFU, CARD8 / Fold change vs veh, CARD8 / RFU, STRN3 / Fold change vs veh, STRN3 / RFU, ADK / Fold change vs veh, ADK / RFU, RASSF2 / Fold change vs veh, RASSF2 / RFU, WIPF1 / Fold change vs veh, WIPF1 / RFU, LARP1B / Fold change vs veh, LARP1B / RFU, RASA1 / Fold change vs veh, RASA1 / RFU, RB1 / Fold change vs veh, RB1 / RFU, PPFIA1 / Fold change vs veh, PPFIA1 / RFU, MAT2A / Fold change vs veh, MAT2A / RFU, CCT5 / Fold change vs veh, CCT5 / RFU, WDR92 / Fold change vs veh, WDR92 / RFU, CUX1 / Fold change vs veh, CUX1 / RFU, TTC7A / Fold change vs veh, TTC7A / RFU, TMEM135 / Fold change vs veh, TMEM135 / RFU, DEPTOR / Fold change vs veh, DEPTOR / RFU, CPM / Fold change vs veh, CPM / RFU, DNAJB6 / Fold change vs veh, DNAJB6 / RFU, CACNA2D3 / Fold change vs veh, CACNA2D3 / RFU, DTX4 / Fold change vs veh, DTX4 / RFU, TFCP2 / Fold change vs veh, TFCP2 / RFU, GMCL1 /// GMCL1P1 / Fold change vs veh, GMCL1 /// GMCL1P1 / RFU, AEBP2 / Fold change vs veh, AEBP2 / RFU, SNHG1 /// SNORD22 /// SNORD25 /// SNORD26 /// SNORD27 /// SNORD28 /// SNORD29 /// SNORD31 / Fold change vs veh, SNHG1 /// SNORD22 /// SNORD25 /// SNORD26 /// SNORD27 /// SNORD28 /// SNORD29 /// SNORD31 / Fold change (Aza/veh), C12orf56 (ProbeSet 11735607_a_at) / Fold change (ACY-1035/veh), C12orf56 (ProbeSet 11735607_a_at) / Fold change (Aza/veh), FGFR1OP (ProbeSet 11751329_s_at) / Fold change (ACY-1035/veh), FGFR1OP (ProbeSet 11751329_s_at) / Fold change (Aza/veh), VPS36 (ProbeSet 11739960_a_at) / Fold change (ACY-1035/veh), VPS36 (ProbeSet 11739960_a_at) / RFU SYPL1 (11715823_x_at) / Fold change /veh SYPL1 (11715823_x_at) / RFU IGFBP7 (11715501_s_at) / Fold change /veh IGFBP7 (11715501_s_at) / RFU REEP3 (11722064_at) / Fold change /veh REEP3 (11722064_at) / RFU IGLL1 (11728026_x_at) / Fold change /veh IGLL1 (11728026_x_at): dose or concentration left out as unconfirmed
Details: ProbeSet 11716865_a_at; LIST B

Nc1ccc(-c2cccs2)cc1NC(=O)c1ccc2c(c1)cc(C1CC1)n2CCN1CCOCC1 [ACY-1035]
Fold change vs veh, SLC1A5: 0.85
